Molecular target: human HPK1 (MAP4K1) (Homo sapiens (Human), UniProt Q92918)
Test: HPK1 IC50 Assay (TR-FRET biochemical kinase assay, STK S1 peptide substrate)
Conditions: recombinant human HPK1 kinase domain 0.15 nM, 10 μM ATP, 1 μM STK S1 peptide; geometric mean
How it was run: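 Pre-activated recombinant kinase domain (insect cells; 0.15 nM) pre-incubated with compounds for 15 min, then 10 μM ATP and 1 μM STK S1 peptide added for 3 h at 25 °C in BES pH 7.0. Phosphorylation read by HTRF (665/620 nm). IC50 from four-parameter fits normalized to staurosporine/DMSO controls, geometric mean of repeats.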

Chain of human HPK1 (MAP4K1) (Q92918 17-274): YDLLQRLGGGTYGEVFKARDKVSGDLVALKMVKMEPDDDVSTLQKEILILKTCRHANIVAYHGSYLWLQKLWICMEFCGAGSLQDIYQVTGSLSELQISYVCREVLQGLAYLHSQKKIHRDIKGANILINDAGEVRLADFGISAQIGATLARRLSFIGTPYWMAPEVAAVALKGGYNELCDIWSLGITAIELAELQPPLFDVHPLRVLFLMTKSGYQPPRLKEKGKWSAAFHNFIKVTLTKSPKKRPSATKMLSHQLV

SMILES | IC50 [nM]
CC[C@@H](O)C(=O)N1CCC2(CC1)C(=O)N([C@H]1C[C@@H](N3CCCCC3)C1)c1cc(-c3cc4ncn(C(C)C)c4c(Nc4ccncc4F)n3)ccc12 [Example 114] | 0.4
CC(C)n1cnc2cc(-c3ccc4c(c3)N([C@H]3C[C@@H](N5CCCCC5)C3)C(=O)C43CCN(C(=O)C4(C#N)CC4)CC3)nc(Nc3ccncc3F)c21 [Example 142] | 0.3
CC(=O)N1CCC2(CC1)C(=O)N(C1CC(N3CCCC4(CC4)C3)C1)c1cc(-c3cc4ncn(C(C)C)c4c(Nc4ccncc4F)n3)ccc12 (stereo not drawn) [Example 177, 1-((1s,3s)-3-(5-azaspiro[2.5]octan-5-yl)cyclobutyl)-1′-acetyl-6-(4-((3-fluoropyridin-4-yl)amino)-3-isopropyl-3H-imidazo[4,5-c]pyridin-6-yl)spiro[indoline-3,4′-piperidin]-2-one] | 0.3
CC(=O)N1CCC2(CC1)C(=O)N([C@H]1C[C@@H](N3CCC(C)(C)C3)C1)c1cc(-c3cc4ncn(C(C)C)c4c(Nc4cc(C)ncc4F)n3)ccc12 [Example 173] | 0.4
CC(C)n1cnc2cc(-c3ccc4c(c3)N([C@H]3C[C@@H](N5C[C@H]6CC[C@H]6C5)C3)C(=O)C43CCN(C(=O)C4(C)COC4)CC3)nc(Nc3ccncc3F)c21 [Example 110] | 0.2
CC(=O)N1CCC2(CC1)C(=O)N([C@H]1C[C@@H](N3CC4CC4(C)C3)C1)c1cc(-c3cc4ncn(C(C)C)c4c(Nc4ccncc4F)n3)ccc12 (stereo partly drawn) [Example 187] | 0.2
CC(C)[C@H](O)C(=O)N1CCC2(CC1)C(=O)N([C@H]1C[C@@H](N3CCC(C)(C)C3)C1)c1cc(-c3cc4ncn(C(C)C)c4c(Nc4ccncc4F)n3)ccc12 [Example 119] | 0.2
COC(C)(C)C(=O)N1CCC2(CC1)C(=O)N([C@H]1C[C@@H](N3CCCCC3)C1)c1cc(-c3cc4ncn(C(C)C)c4c(Nc4ccncc4F)n3)ccc12 [Example 145] | 0.4
CC(C)n1cnc2cc(-c3ccc4c(c3)N([C@H]3C[C@@H](N5CC6CCC(C6)C5)C3)C(=O)C43CCN(C(=O)C4CCO4)CC3)nc(Nc3ccncc3F)c21 (stereo partly drawn) [Example 125] | 0.04
CC(C)n1cnc2cc(-c3ccc4c(c3)N([C@H]3C[C@@H](N5CCC(C)(C)C5)C3)C(=O)C43CCN(C(=O)c4cocn4)CC3)nc(Nc3ccncc3F)c21 [Example 154] | 0.3
CC(C)n1cnc2cc(-c3ccc4c(c3)N([C@H]3C[C@@H](N5CCCC(C)(C)C5)C3)C(=O)C43CCN(C(=O)C4CCO4)CC3)nc(Nc3ccncc3F)c21 (stereo partly drawn) [Example 108] | 0.2
CC(C)n1cnc2cc(-c3ccc4c(c3)N([C@H]3C[C@@H](N5CC(C)(C)C5)C3)C(=O)C43CCN(C4COC4)CC3)nc(Nc3ccncc3F)c21 [Example 176] | 0.8
CC(C)n1cnc2cc(-c3ccc4c(c3)N([C@H]3C[C@@H](N5CC6CCC(C6)C5)C3)C(=O)C43CCN(C(=O)[C@@H](C)O)CC3)nc(Nc3ccncc3F)c21 [Example 126] | 0.1
COC1(C(=O)N2CCC3(CC2)C(=O)N([C@H]2C[C@@H](N4CCCCC4)C2)c2cc(-c4cc5ncn(C(C)C)c5c(Nc5ccncc5F)n4)ccc23)CC1 [Example 146] | 0.3
CC(=O)N1CCC2(CC1)C(=O)N([C@H]1C[C@@H](N3CCCCC3)C1)c1cc(-c3cc4ncn(C(C)C)c4c(Nc4cc5ccncc5cc4F)n3)ccc12 [Example 105, 1′-acetyl-6-(4-((7-fluoroisoquinolin-6-yl)amino)-3-isopropyl-3H-imidazo[4,5-c]pyridin-6-yl)-1-((1s,3s)-3-(piperidin-1-yl)cyclobutyl)spiro[indoline-3,4′-piperidin]-2-one] | 0.4
CC(C)n1cnc2cc(-c3ccc4c(c3)N([C@H]3C[C@@H](N5C6COCC5C6)C3)C(=O)C4(C)C)nc(Nc3ccncc3F)c21 [Example 190] | 2.1
CC(C)n1cnc2cc(-c3ccc4c(c3)N([C@H]3C[C@@H](N5CCCCC5)C3)C(=O)C43CCN(C(=O)C4COC4)CC3)nc(Nc3ccncc3F)c21 [Example 144] | 0.3
CC(C)n1cnc2cc(-c3ccc4c(c3)N([C@H]3C[C@@H](N5CCCCC5)C3)C(=O)C43CCN(C(=O)C4(CO)CC4)CC3)nc(Nc3ccncc3F)c21 [Example 134] | 0.3
CC(C)n1cnc2cc(-c3ccc4c(c3)N([C@H]3C[C@@H](N5CC6CCC(C6)C5)C3)C(=O)C43CCN(C(=O)C4COC4)CC3)nc(Nc3ccncc3F)c21 [Example 124] | 0.07
CC(C)n1cnc2cc(-c3ccc4c(c3)N([C@H]3C[C@@H](N5CCC(C)(C)C5)C3)C(=O)C43CCN(C(=O)c4cnco4)CC3)nc(Nc3ccncc3F)c21 [Example 158] | 0.4

Same assay, conditions: recombinant human HPK1 kinase domain 0.15 nM, 10 μM ATP, 1 μM STK S1 peptide; geometric mean of multiple experiments

SMILES | IC50 [nM]
CC(C)n1cnc2cc(-c3ccc4c(c3)N([C@H]3C[C@@H](N5CC(O)C(C)(C)C5)C3)C(=O)C43CCN(C4COC4)CC3)nc(Nc3ccncc3F)c21 (stereo partly drawn) [Example 37, 6-(4-((3-fluoropyridin-4-yl)amino)-3-isopropyl-3H-imidazo[4,5-c]pyridin-6-yl)-1-((1s,3s)-3-(4-hydroxy-3,3-dimethylpyrrolidin-1-yl)cyclobutyl)-1′-(oxetan-3-yl)spiro[indoline-3,4′-piperidin]-2-one] | 0.2
CC(C)n1cnc2cc(-c3ccc4c(c3)N([C@H]3C[C@@H](N5CCC6(CC6)C5)C3)C(=O)C4(C)C)nc(Nc3ccncc3F)c21 [Example 56] | 0.8
CC(C)n1cnc2cc(-c3ccc4c(c3)N([C@H]3C[C@@H](N5CCCCCC5)C3)C(=O)C4(C)C)nc(Nc3ccncc3F)c21 [Example 59] | 0.09
CC(C)n1cnc2cc(-c3ccc4c(c3)N([C@H]3C[C@@H](N5CCCCC5)C3)C(=O)C43CCN(C(=O)C4(C)CCOCC4)CC3)nc(Nc3ccncc3F)c21 [Example 1, 6-(4-((3-fluoropyridin-4-yl)amino)-3-isopropyl-3H-imidazo[4,5-c]pyridin-6-yl)-1′-(4-methyltetrahydro-2H-pyran-4-carbonyl)-1-((1s,3s)-3-(piperidin-1-yl)cyclobutyl)spiro[indoline-3,4′-piperidin]-2-one] | 0.6
CNC(=O)c1cc(Nc2nc(-c3ccc4c(c3)N([C@H]3C[C@@H](N5CCCCC5)C3)C(=O)C4(C)C)cc3ncn(C(C)C)c23)c(F)cn1 [Example 88] | 8.2
CC(C)n1cnc2cc(-c3ccc4c(c3)N([C@H]3C[C@@H](N5CCCCC5)C3)C(=O)C4(C)C)nc(Nc3ccncc3F)c21 [Example 83] | 0.8
CC(C)n1cnc2cc(-c3ccc4c(c3)N([C@H]3C[C@@H](N5CC[C@H](F)C5)C3)C(=O)C43CCN(C4COC4)CC3)nc(Nc3ccncc3F)c21 [Example 46] | 1.1
CC(C)n1cnc2cc(-c3ccc4c(c3)N([C@H]3C[C@@H](N5CCCC6(CC6)C5)C3)C(=O)C43CCN(C(=O)C4(C)COC4)CC3)nc(Nc3ccncc3F)c21 [Example 35] | 0.2
CC(C)n1cnc2cc(-c3cnc4c(c3)N([C@H]3C[C@@H](N5CCCCC5)C3)C(=O)C4(C)C)nc(Nc3ccnc(F)c3F)c21 [Example 95] | 2.5
CC(C)n1cnc2cc(-c3ccc4c(c3)N([C@H]3C[C@@H](N5C[C@@H](C)[C@@H](C)C5)C3)C(=O)C43CCN(C(=O)C(C)(C)CO)CC3)nc(Nc3ccncc3F)c21 [Example 10] | 0.05
CC(=O)N1CCC2(CC1)C(=O)N([C@H]1C[C@@H](N3C[C@@H](C)[C@@H](C)C3)C1)c1cc(-c3cc4ncn(C(C)C)c4c(Nc4ccncc4F)n3)ccc12 [Example 33] | 0.3
CC(C)n1cnc2cc(-c3ccc4c(c3)N([C@H]3C[C@@H](N5C[C@@H](C)[C@@H](C)C5)C3)C(=O)C43CCN(C(=O)C4(C)COC4)CC3)nc(Nc3ccncc3F)c21 [Example 8] | 0.2
CC(C)n1cnc2cc(-c3ccc4c(c3)N([C@H]3C[C@@H](N5CCCCC5)C3)C(=O)C43CCN(C(=O)C4(C)COC4)CC3)nc(Nc3ccc(F)nc3F)c21 [Example 96] | 0.2
CC(C)n1cnc2cc(-c3ccc4c(c3)N([C@H]3C[C@@H](N5CCC(C)(C)C5)C3)C(=O)C43CCOCC3)nc(Nc3ccncc3F)c21 [Example 71] | 0.2
CC(C)n1cnc2cc(-c3ccc4c(c3)N([C@H]3C[C@@H](N5CC(C)(C)C[C@H]5CO)C3)C(=O)C43CCN(C4COC4)CC3)nc(Nc3ccncc3F)c21 [Example 38] | 1.4
CCn1cnc2cc(-c3ccc4c(c3)N([C@H]3C[C@@H](N5CCCCC5)C3)C(=O)C43CCN(C(=O)[C@@H](C)O)CC3)nc(Nc3ccc(F)nc3F)c21 [Example 73] | 0.2
CCn1cnc2cc(-c3ccc4c(c3)N([C@H]3C[C@@H](N5CC(C)(C)C5)C3)C(=O)C4(C)C)nc(Nc3ccncc3F)c21 [Example 85] | 2.5
CC(C)n1cnc2cc(-c3ccc4c(c3)N([C@H]3C[C@@H](N5CCC(C)(C)C5)C3)C(=O)C43CCN(C(=O)C4COC4)CC3)nc(Nc3ccncc3F)c21 [Example 76] | 0.5
CC(C)n1cnc2cc(-c3ccc4c(c3)N([C@H]3C[C@@H](N5CCC(C)(C)C5)C3)C(=O)C43CCN(C(=O)C4CCO4)CC3)nc(Nc3ccncc3F)c21 (single isomer, unassigned) [Example 78A, 1-((1s,3s)-3-(3,3-dimethylpyrrolidin-1-yl)cyclobutyl)-6-(4-((3-fluoropyridin-4-yl)amino)-3-isopropyl-3H-imidazo[4,5-c]pyridin-6-yl)-1′-(oxetane-2-carbonyl)spiro[indoline-3,4′-piperidin]-2-one] | 0.3
CC(C)n1cnc2cc(-c3ccc4c(c3)N([C@H]3C[C@@H](N5CCCC(C)(C)C5)C3)C(=O)C4(C)C)nc(Nc3ccc(=O)[nH]c3)c21 [Example 82] | 0.1
CC(C)n1cnc2cc(-c3ccc4c(c3)N([C@H]3C[C@@H](N5CC(C)(C)C[C@@H]5CO)C3)C(=O)C43CCN(C4COC4)CC3)nc(Nc3ccncc3F)c21 [Example 39] | 0.6
CC[C@H](C)n1cnc2cc(-c3ccc4c(c3)N([C@H]3C[C@@H](N5CCCCC5)C3)C(=O)C43CCN(C4COC4)CC3)nc(Nc3ccncc3F)c21 [Example 89] | 0.5

Reference: patent US11071730B2, “Substituted 6-azabenzimidazole compounds” (Gilead Sciences, Inc., priority 2018, dated 2021)
